How the values were obtained:
[1] = biological target: CK1ε (Homo sapiens (Human), UniProt P49674); assay: CK1ε kinase assay (Caliper LABCHIP electrophoretic separation of fluoresceinated peptide substrate and product); assay type: biochemical; conditions: 200 pM CK1ε, 50 μM ATP, 1.5 μM peptide substrate, 22 hours at room temperature; read-out: CK1ε (IC50)
Outline: (§1)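 Reactions ran 22 hours at room temperature and were stopped with EDTA. Phosphorylated product and unphosphorylated substrate were then separated electrophoretically. Compounds were tested at eleven concentrations, and IC50 values came from non-linear regression.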

[2] = biological target: CK1δ (Homo sapiens (Human), UniProt P48730); assay: CK1δ kinase assay (Caliper LABCHIP electrophoretic separation of fluoresceinated peptide substrate and product); assay type: biochemical; conditions: 200 pM CK1δ, 50 μM ATP, 1.5 μM peptide substrate, 22 hours at room temperature; read-out: CK1δ (IC50)
CK1δ, sequence (P48730 whole entry): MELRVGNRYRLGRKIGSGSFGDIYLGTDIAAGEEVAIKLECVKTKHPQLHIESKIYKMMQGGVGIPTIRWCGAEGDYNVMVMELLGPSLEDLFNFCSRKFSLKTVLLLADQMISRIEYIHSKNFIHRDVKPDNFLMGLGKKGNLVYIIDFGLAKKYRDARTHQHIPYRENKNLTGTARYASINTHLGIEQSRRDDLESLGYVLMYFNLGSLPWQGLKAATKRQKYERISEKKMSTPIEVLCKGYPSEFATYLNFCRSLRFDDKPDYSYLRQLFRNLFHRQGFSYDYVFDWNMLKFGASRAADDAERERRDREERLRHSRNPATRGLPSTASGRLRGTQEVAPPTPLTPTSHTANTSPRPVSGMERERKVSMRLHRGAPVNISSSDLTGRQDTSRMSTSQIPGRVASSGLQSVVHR
Outline: as §1

CK1ε, sequence (P49674 whole entry): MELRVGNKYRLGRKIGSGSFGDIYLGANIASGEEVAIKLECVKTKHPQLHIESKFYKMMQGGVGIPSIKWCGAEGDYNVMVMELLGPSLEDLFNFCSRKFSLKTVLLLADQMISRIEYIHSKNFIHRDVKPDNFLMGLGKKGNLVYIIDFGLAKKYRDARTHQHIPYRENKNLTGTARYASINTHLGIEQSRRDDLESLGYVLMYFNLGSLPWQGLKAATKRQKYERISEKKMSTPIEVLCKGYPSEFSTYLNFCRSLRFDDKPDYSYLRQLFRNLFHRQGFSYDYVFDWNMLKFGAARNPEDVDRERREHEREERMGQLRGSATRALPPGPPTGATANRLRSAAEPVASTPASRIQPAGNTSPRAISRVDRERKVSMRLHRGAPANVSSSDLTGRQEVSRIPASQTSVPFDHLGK

Row | SMILES | IC50 [1] | IC50 [2]
1 | CC(C)(C)NC(=O)N1CCn2nc(-c3cncc(Cl)c3)c(C(N)=O)c2C1 [Compound 148, N^5-(tert-Butyl)-2-(5-chloropyridin-3-yl)-6,7-dihydropyrazolo[1,5-a]pyrazine-3,5(4H)-dicarboxamide] | 0.01 to 10 nM | 0.01 to 10 nM
2 | N#Cc1ccc(NC(=O)N2CCn3nc(-c4cc(Cl)ccc4Cl)c(C(N)=O)c3C2)cc1 [Compound 272, N^5-(4-Cyanophenyl)-2-(2,5-dichlorophenyl)-6,7-dihydropyrazolo[1,5-a] pyrazine-3,5(4H)-dicarboxamide] | 0.01 to 10 nM | 0.01 to 10 nM
3 | CC(C)(C)C(=O)N1CCC(NC(=O)N2CCn3nc(-c4cccc(F)c4)c(C(N)=O)c3C2)CC1 [Compound 98, 2-(3-Fluorophenyl)-N^5-(1-pivaloylpiperidin-4-yl)-6,7-dihydropyrazolo[1,5-a]pyrazine-3,5(4H)-dicarboxamide] | 0.01 to 10 nM | 0.01 to 10 nM
4 | CC(C)(C)c1ccc(NC(=O)N2CCn3nc(-c4cccc(F)c4)c(C(N)=O)c3C2)cc1 [Compound 63, N^5-(4-(tert-Butyl)phenyl)-2-(3-fluorophenyl)-6,7-dihydropyrazolo[1,5-a]pyrazine-3,5(4H)-dicarboxamide] | 0.01 to 10 nM | 0.01 to 10 nM
5 | NC(=O)c1c(-c2cccc(F)c2)nn2c1CN(C(=O)Nc1ccc(-c3ccccc3)cc1)CC2 [Compound 62, N^5-([1,1′-Biphenyl]-4-yl)-2-(3-fluorophenyl)-6,7-dihydropyrazolo[1,5-a]pyrazine-3,5(4H)-dicarboxamide] | 0.01 to 10 nM | 0.01 to 10 nM
6 | COc1cc(-c2nn3c(c2C(N)=O)CN(C(=O)Nc2ccc(C#N)cc2)CC3)ccc1F [Compound 280, N^5-(4-Cyanophenyl)-2-(4-fluoro-3-methoxyphenyl)-6,7-dihydropyrazolo[1,5-a] pyrazine-3,5(4H)-dicarboxamide] | 0.01 to 10 nM | 0.01 to 10 nM
7 | N#Cc1ccc(NC(=O)N2CCn3nc(-c4ccc(F)c(F)c4)c(C(N)=O)c3C2)cc1C(F)(F)F [Compound 237, N^5-(4-Cyano-3-(trifluoromethyl)phenyl)-2-(3,4-difluorophenyl)-6,7-dihydropyrazolo [1,5-a]pyrazine-3,5(4H)-dicarboxamide] | 0.01 to 10 nM | 0.01 to 10 nM

More lines, now with the values ahead:

Row | IC50 [1] | IC50 [2] | SMILES
8 | 0.01 to 10 nM | 0.01 to 10 nM | N#Cc1ccc(NC(=O)N2Cc3c(C(N)=O)c(-c4ccc(F)c(Cl)c4)nn3C3(C2)CC(F)(F)C3)cc1 [Compound A36, 2′-(3-Chloro-4-fluorophenyl)-N^5′-(4-cyanophenyl)-3,3-difluoro-4′H-spiro[cyclobutane-1,7′-pyrazolo[1,5-a]pyrazine]-3′,5′(6′H)-dicarboxamide]
9 | 0.01 to 10 nM | 0.01 to 10 nM | N#Cc1ccc(NC(=O)N2CCn3nc(-c4ccc(F)c(Cl)c4)c(C(N)=O)c3C2)cc1N1CCOCC1 [Compound A49, 2-(3-Chloro-4-fluorophenyl)-N^5-(4-cyano-3-morpholinophenyl)-6,7-dihydropyrazolo[1,5-a]pyrazine-3,5(4H)-dicarboxamide]
10 | 0.01 to 10 nM | 0.01 to 10 nM | NC(=O)c1c(-c2cccc(Cl)c2)nn2c1CN(C(=O)Nc1cc(Cl)cc(Cl)c1)CC2CO (stereo not drawn) [Compound A4, 2-(3-Chlorophenyl)-N^5-(3,5-dichlorophenyl)-7-(hydroxymethyl)-6,7-dihydropyrazolo[1,5-a]pyrazine-3,5(4H)-dicarboxamide]
11 | 0.01 to 10 nM | 0.01 to 10 nM | N#Cc1ccc(NC(=O)N2Cc3c(C(N)=O)c(-c4cccc(F)c4)nn3C3(CC3)C2)cc1 [Compound A87, N^5′-(4-Cyanophenyl)-2′-(3-fluorophenyl)-4′H-spiro[cyclopropane-1,7′-pyrazolo[1,5-a]pyrazine]-3′,5′(6′H)-dicarboxamide]
12 | 0.01 to 10 nM | 0.01 to 10 nM | C[C@H]1CN(C(=O)Nc2ccc(C#N)cc2)Cc2c(C(N)=O)c(-c3cccc(F)c3)nn21 (single isomer, unassigned) [Compound A78, N^5-(4-Cyanophenyl)-2-(3-fluorophenyl)-7-methyl-6,7-dihydropyrazolo[1,5-a]pyrazine-3,5(4H)-dicarboxamide]

Source: patent US9598423B2 (BRISTOL-MYERS SQUIBB COMPANY, priority 2013, dated 2017)
